Results taken from USRE47689E1, “Compounds for treating spinal muscular atrophy” (PTC Therapeutics, Inc., priority 2011, dated 2019).
Read-outs that look alike come from different tables or passages of the source.

Key:
[1] = tested on: SMN2 minigene (full length SMN2 minigene mRNA containing SMN2 exon 7); assay: SMN2 minigene mRNA splicing RT-qPCR assay in cultured cells; assay type: cell-based, human; conditions: Homo sapiens, HEK293-H, read-out: EC1.5x for production of full length SMN2 mRNA
In short: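 Read-out: full-length (exon 7-included) SMN2 minigene mRNA by multiplex RT-qPCR with GAPDH, efficiency-corrected (1+E)^−Ct, GAPDH-normalized and divided by vehicle. Stably transfected HEK293H cells, 24 h compound exposure, duplicates per concentration. Value is EC1.5x, reported as star ranges.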

Smn protein = Smn protein assay in cultured cells (SMN HTRF); assay type: cell-based, human; conditions: 48 hours; for maximum fold (Fold) increase of Smn protein: SMA patient fibroblast cells, 7-point concentration data, fold increase relative to vehicle control (SMN HTRF); for EC1.5x (concentration giving 1.5-fold Smn protein increase): SMA Type 1 patient fibroblast cells (GM03813), 7-point concentration curve, SMN HTRF, concentration producing 1.5 times Smn protein vs DMSO vehicle control, read-out: EC1.5x for Smn protein expression
In short: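 Lysates in RIPA with protease inhibitors are incubated overnight at room temperature with HTRF anti-SMN antibodies. EC1.5x is derived from fold increase in ΔF over vehicle.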

[2] = HEK293H cells stably transfected with SMN2-A minigene, 24 hours, 7-point concentration curve, 1.5-fold relative to vehicle-treated cells

Compound	melting point [°C]	EC (1.5-fold) [1, 2] [µM]	maximum fold (Fold) increase of Smn protein (Smn protein)	EC1.5x (concentration giving 1.5-fold Smn protein increase) (Smn protein) [nM]	EC (1.5-fold) ([1]; 24 h) [µM]
CC(C)NCCCc1ccc2cc(-c3nc4c(Cl)cccc4s3)c(=O)oc2c1 [Compound 36, 3-(4-chloro-1,3-benzothiazol-2-yl)-7-[3-(propan-2-ylamino)propyl]-2H-chromen-2-one]	262 to 265	1 to 3	* (maximum fold increase of ≤1.2)	–	–
Cc1ccc2nc(-c3cc4ccc(N5CCNC(C)(C)C5)cc4oc3=O)cn2c1 [Compound 222, 7-(3,3-dimethylpiperazin-1-yl)-3-(6-methylimidazo[1,2-a]pyridin-2-yl)-2H-chromen-2-one]	177 to 180	1 to 3	* (maximum fold increase of ≤1.2)	–	–
O=c1oc2cc(N3CCNCC3)ccc2cc1-c1cn2ccsc2n1 [Compound 88, 3-(imidazo[2,1-b][1,3]thiazol-6-yl)-7-(piperazin-1-yl)-2H-chromen-2-one]	275 to 280	< 0.1	*** (fold increase between >1.35 and ≤1.5)	1000 to 3000	–
C[C@H]1CN(c2ccc3cc(-c4cccc(C(F)(F)F)c4)c(=O)oc3c2)CCN1 [Compound 490, 7-[(3S)-3-methylpiperazin-1-yl]-3-[3-(trifluoromethyl)phenyl]-2H-chromen-2-one]	141 to 143	1 to 3	* (maximum fold increase of ≤1.2)	–	–
Cc1csc(-c2cc3ccc(N4CCCNCC4)cc3oc2=O)n1 [Compound 284, 7-(1,4-diazepan-1-yl)-3-(4-methyl-1,3-thiazol-2-yl)-2H-chromen-2-one]	195 to 203	1 to 3	* (maximum fold increase of ≤1.2)	–	–
Cc1cnc2nc(-c3cc4ccc(N5CCCNCC5)cc4oc3=O)cn2c1 [Compound 378, 7-(1,4-diazepan-1-yl)-3-(6-methylimidazo[1,2-a]pyrimidin-2-yl)-2H-chromen-2-one]	275 to 278	0.1 to 0.3	** (fold increase between >1.2 and ≤1.35)	–	–
O=c1oc2cc(N3CCNCC3)ccc2cc1-c1cn2cc(F)cnc2n1 [Compound 502, 3-(6-fluoroimidazo[1,2-a]pyrimidin-2-yl)-7-(piperazin-1-yl)-2H-chromen-2-one]	250 to 261	1 to 3	* (maximum fold increase of ≤1.2)	–	–
O=c1oc2cc(CN3CCCCC3)ccc2cc1-c1nc2c(Cl)cccc2s1 [Compound 60, 3-(4-chloro-1,3-benzothiazol-2-yl)-7-(piperidin-1-ylmethyl)-2H-chromen-2-one]	191 to 195	1 to 3	** (fold increase between >1.2 and ≤1.35)	–	–
COc1cc(OC)cc(-c2cc3ccc(N4CCCNCC4)cc3oc2=O)c1 [Compound 387, 7-(1,4-diazepan-1-yl)-3-(3,5-dimethoxyphenyl)-2H-chromen-2-one]	238 to 240	3 to 30	* (maximum fold increase of ≤1.2)	–	–
COc1ccn2cc(-c3cc4ccc(N5CCN(C)CC5)cc4oc3=O)nc2c1 [Compound 435, 3-(7-methoxyimidazo[1,2-a]pyridin-2-yl)-7-(4-methylpiperazin-1-yl)-2H-chromen-2-one]	251 to 259	1 to 3	* (maximum fold increase of ≤1.2)	–	–
Cc1cc2cc(-c3cc4ccc(N5CCN(CCO)CC5)cc4oc3=O)oc2c(C)n1 [Compound 774, 3-(5,7-dimethylfuro[2,3-c]pyridin-2-yl)-7-[4-(2-hydroxyethyl)piperazin-1-yl]-2H-chromen-2-one]	203 to 205	< 0.1	**** (fold increase between >1.5 and ≤1.65)	< 300	–
Cc1ccn2cc(-c3cc4c(F)cc(N5CCNCC5)cc4oc3=O)nc2c1 [Compound 424, 5-fluoro-3-(7-methylimidazo[1,2-a]pyridin-2-yl)-7-(piperazin-1-yl)-2H-chromen-2-one]	268 to 278	0.1 to 0.3	*** (fold increase between >1.35 and ≤1.5)	< 300	–
CCc1cn2cc(-c3cc4ccc(N5CCNCC5)cc4oc3=O)nc2s1 [Compound 428, 3-(2-ethylimidazo[2,1-b][1,3]thiazol-6-yl)-7-(piperazin-1-yl)-2H-chromen-2-one]	231 to 236	1 to 3	* (maximum fold increase of ≤1.2)	–	–
Cc1ccn2cc(-c3cc4ccc(N5C[C@H]6CC[C@@H](C5)N6C)cc4oc3=O)nc2c1 [Compound 535, 7-[(1R,5S)-8-methyl-3,8-diazabicyclo[3.2.1]oct-3-yl]-3-(7-methylimidazo[1,2-a]pyridin-2-yl)-2H-chromen-2-one]	224 to 229	–	* (maximum fold increase of ≤1.2)	–	1 to 3
CN1CCN(c2ccc3cc(-c4nc5c(Cl)cccc5o4)c(=O)oc3c2)CC1 [Cpd 68, 3-(4-chloro-1,3-benzoxazol-2-yl)-7-(4-methylpiperazin-1-yl)-2H-chromen-2-one]	229 to 231	1 to 3	** (fold increase between >1.2 and ≤1.35)	–	–
Cc1cn2cc(-c3cc4c(F)cc(N5CCCNCC5)cc4oc3=O)nc2cn1 [Compound 550, 7-(1,4-diazepan-1-yl)-5-fluoro-3-(6-methylimidazo[1,2-a]pyrazin-2-yl)-2H-chromen-2-one]	270 to 274	< 0.1	**** (fold increase between >1.5 and ≤1.65)	< 300	–

The next lines start with results.

melting point [°C]	Compound	EC (1.5-fold) [1, 2] [µM]	maximum fold (Fold) increase of Smn protein (Smn protein)	EC1.5x (concentration giving 1.5-fold Smn protein increase) (Smn protein) [nM]	EC (1.5-fold) ([1]; 24 h) [µM]
260 to 262	C[C@H]1CN(c2ccc3cc(-c4cn5cc(Cl)cnc5n4)c(=O)oc3c2)CCN1 [Compound 376, 3-(6-chloroimidazo[1,2-a]pyrimidin-2-yl)-7-[(3S)-3-methylpiperazin-1-yl]-2H-chromen-2-one]	1 to 3	* (maximum fold increase of ≤1.2)	–	–
206 to 208	Cc1cn2cc(-c3cc4ccc(N5CC[C@H](CN(C)C)C5)cc4oc3=O)nc2c(C)n1 [Compound 965, 7-{(3R)-3-[(dimethylamino)methyl]pyrrolidin-1-yl}-3-(6,8-dimethylimidazo[1,2-a]pyrazin-2-yl)-2H-chromen-2-one]	< 0.1	*** (fold increase between >1.35 and ≤1.5)	< 300	–
185 to 188	Cc1cn2cc(-c3cc4ccc(N5CCN6C[C@H](O)C[C@H]6C5)cc4oc3=O)cc2c(C)n1 [Compound 767, 3-(1,3-dimethylpyrrolo[1,2-a]pyrazin-7-yl)-7-[(7R,8aS)-7-hydroxyhexahydropyrrolo[1,2-a]pyrazin-2(1H)-yl]-2H-chromen-2-one]	< 0.1	***** (fold increase >1.65)	< 300	–
254 to 263	C[C@H]1CN(c2ccc3cc(-c4cn5cc(C6CC6)cc(F)c5n4)c(=O)oc3c2)CCN1 [Compound 498, 3-(6-cyclopropyl-8-fluoroimidazo[1,2-a]pyridin-2-yl)-7-[(3S)-3-methylpiperazin-1-yl]-2H-chromen-2-one]	0.3 to 1	* (maximum fold increase of ≤1.2)	–	–
215 to 219	C[C@@H]1CN(c2ccc3cc(-c4nc(C(F)(F)F)cs4)c(=O)oc3c2)C[C@H](C)N1 [Compound 236, 7-[(3R,5S)-3,5-dimethylpiperazin-1-yl]-3-[4-(trifluoromethyl)-1,3-thiazol-2-yl]-2H-chromen-2-one]	1 to 3	* (maximum fold increase of ≤1.2)	–	–
225 to 227	Cc1cn2cc(-c3cc4ccc(N5C[C@@H]6C[C@H]5CN6)cc4oc3=O)nc2cn1 [Compound 623, 7-[(1S,4S)-2,5-diazabicyclo[2.2.1]hept-2-yl]-3-(6-methylimidazo[1,2-a]pyrazin-2-yl)-2H-chromen-2-one]	< 0.1	*** (fold increase between >1.35 and ≤1.5)	300 to 1000	–
186 to 188	O=c1oc2cc(N3CCNCC3)ccc2cc1-c1cc2ccccn2c1 [Cpd 529, 3-(indolizin-2-yl)-7-(piperazin-1-yl)-2H-chromen-2-one]	1 to 3	* (maximum fold increase of ≤1.2)	–	–
172 to 174	Cc1cn2cc(-c3cc4ccc(N5C[C@@H](C)N[C@@H](C)C5)cc4oc3=O)cc2cn1 [Compound 584, 7-[(3R,5S)-3,5-dimethylpiperazin-1-yl]-3-(3-methylpyrrolo[1,2-a]pyrazin-7-yl)-2H-chromen-2-one]	< 0.1	***** (fold increase >1.65)	< 300	–
